ChEMBL document CHEMBL5329214, “4-Arylidene curcumin derivatives in vitro inhibit α-Synuclein aggregation and disaggregate the preformed fibril” (Bioorg Med Chem, 2023)
Active and inactive are the calls of the source. The calls are words filed in the database; no cut-off is given here.

Legend:
[1] = target: T1, Alpha-synuclein (Homo sapiens, UniProt P37840); assay: Inhibition of alpha-Synuclein (unknown origin) aggregation incubated for 72 hrs by ThT-based fluorescence analysis
[2] = target: T1, Alpha-synuclein; assay: Inhibition of alpha-Synuclein (unknown origin) aggregation assessed as alteration in typical alpha-Syn "S" shaped aggregation kinetics by measuring reduction in aggregation rate in elongation phase at 30 uM measured for 86 hrs by ThT-based fluorescence analysis
[3] = target: T1, Alpha-synuclein; assay: Inhibition of alpha-Synuclein (unknown origin) aggregation assessed as alteration in typical alpha-Syn "S" shaped aggregation kinetics by measuring weakening of primary nucleation in lag phase at 30 uM measured for 86 hrs by ThT-based fluorescence analysis
[4] = target: T1, Alpha-synuclein; assay: Inhibition of alpha-Synuclein (unknown origin) aggregation assessed as alteration in typical alpha-Syn "S" shaped aggregation kinetics by measuring reduction in oligomeric nuclei in lag phase at 30 uM measured for 86 hrs by ThT-based fluorescence analysis

| Compound | IC50 [1] | inhibition [2] | inhibition [3] | inhibition [4] |
| --- | --- | --- | --- | --- |
| COc1cc(/C=C/C(=O)CC(=O)/C=C/c2ccc(O)c(OC)c2)ccc1O [CURCUMIN] | 3.3 µM | – | – | – |
| COc1cc(/C=C/C(=O)C(=Cc2ccc(O)cc2)C(=O)/C=C/c2ccc(O)c(OC)c2)ccc1O | 4.39 µM | Active | Active | Active |
